From patent publication US20100160369A1, “S1P1 Agonists and Methods of Making And Using” (EXELIXIS, INC., priority 2008, published 2010)

Key:
hS1P1R (hEdg1) = molecular target: T1, hS1P1R (hEdg1) (Homo sapiens, UniProt P21453); assay: hS1P1R GTPγS Binding Assay (Assay 3a); format: biochemical
T1 construct: purchased Lonza
Method in brief: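 Human S1P1 receptor membranes (4 μg) incubated 1 h at room temperature with 30 μM GDP, 0.1 nM [35S]GTPγS, 0.25% fatty-acid-free BSA and serially diluted agonist in pH 7.9 Tris buffer with Mg2+ and EGTA. Bound radioactivity read by WGA SPA after a further 1 h; EC50 reported unless noted.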

S1P1 = S1P1 (Homo sapiens, UniProt P21453); assay: Tango β-arrestin Recruitment Assay in U2OS cells (Assay 2b); format: cell-based; set-up: linker with TEV protease (N1a) cleavage site (C); settings: Tango β-arrestin Recruitment Assay, read-out: Assay 2b EC50
Method in brief: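 Agonist EC50 from percent activity relative to 1 μM S1P efficacy control, using background-subtracted 460/530 nm emission ratios. Compounds (max 1 μM, ten 3-fold dilutions) incubated overnight at 37 °C with serum-starved S1P1 U2OS reporter cells, followed by 2 h β-lactamase reagent at room temperature.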

S1P1, sequence (P21453 whole entry): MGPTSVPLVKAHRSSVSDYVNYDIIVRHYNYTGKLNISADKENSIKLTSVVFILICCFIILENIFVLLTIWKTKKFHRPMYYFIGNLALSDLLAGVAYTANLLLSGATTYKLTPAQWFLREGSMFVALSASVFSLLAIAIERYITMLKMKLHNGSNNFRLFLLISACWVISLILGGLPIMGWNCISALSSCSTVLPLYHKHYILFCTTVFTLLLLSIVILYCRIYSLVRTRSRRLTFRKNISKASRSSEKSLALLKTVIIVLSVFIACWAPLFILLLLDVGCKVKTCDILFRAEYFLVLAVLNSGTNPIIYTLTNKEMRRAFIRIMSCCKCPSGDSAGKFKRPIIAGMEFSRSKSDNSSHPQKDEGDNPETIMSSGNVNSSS
S1P1, sequence (P32121 whole entry partner): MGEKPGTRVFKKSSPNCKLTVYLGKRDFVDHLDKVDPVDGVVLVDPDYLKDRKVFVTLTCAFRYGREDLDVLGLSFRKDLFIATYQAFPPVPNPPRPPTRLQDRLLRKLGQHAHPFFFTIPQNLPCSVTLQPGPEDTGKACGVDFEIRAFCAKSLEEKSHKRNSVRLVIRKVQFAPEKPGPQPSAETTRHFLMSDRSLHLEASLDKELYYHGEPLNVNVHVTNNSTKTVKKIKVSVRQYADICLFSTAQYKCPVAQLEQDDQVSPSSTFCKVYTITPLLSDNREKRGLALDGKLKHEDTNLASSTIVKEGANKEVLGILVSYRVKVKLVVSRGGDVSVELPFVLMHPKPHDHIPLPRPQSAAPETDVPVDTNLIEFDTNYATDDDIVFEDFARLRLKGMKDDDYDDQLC
T1 sequence (P21453 whole entry): as the sequence (P21453 whole entry) above

SMILES	EC50 (hS1P1R (hEdg1))	EC50 (S1P1)
CC(C)Oc1cc(Cl)c2nc(-c3nc(-c4cc(F)c(CCC(=O)O)cc4Cl)no3)cn2c1 [Example 301, 3-[5-chloro-4-(5-{8-chloro-6-[(1-methylethyl)oxy]imidazo[1,2-a]pyridin-2-yl}-1,2,4-oxadiazol-3-yl)-2-fluorophenyl]propanoic acid]	100 to 500 nM	≤ 100 nM
O=C(O)CCc1cc(Cl)c(-c2nnc(-c3cn4cc(C(F)(F)F)cc(Br)c4n3)s2)cc1F [Example 177, 3-(4-{5-[8-bromo-6-(trifluoromethyl)imidazo[1,2-a]pyridin-2-yl]-1,3,4-thiadiazol-2-yl}-5-chloro-2-fluorophenyl)propanoic acid]	≤ 100 nM	≤ 100 nM
OCCOc1cc(Cl)c(-c2noc(-c3cn4cc(C(F)(F)F)cc(Cl)c4n3)n2)cc1F [Example 263, 2-[(5-chloro-4-{5-[8-chloro-6-(trifluoromethyl)imidazo[1,2-a]pyridin-2-yl]-1,2,4-oxadiazol-3-yl}-2-fluorophenyl)oxy]ethanol]	≤ 100 nM	≤ 100 nM
OCC(O)COc1cc(Cl)c(-c2noc(-c3cn4cc(C(F)(F)F)cc(Cl)c4n3)n2)cc1Cl (stereo not drawn) [Example 208, 3-[(2,5-dichloro-4-{5-[8-chloro-6-(trifluoromethyl)imidazo[1,2-a]pyridin-2-yl]-1,2,4-oxadiazol-3-yl}phenyl)oxy]propane-1,2-diol]	≤ 100 nM	≤ 100 nM
Cc1cc(CCC(=O)O)c(Cl)cc1-c1noc(-c2cn3cc(C(F)(F)F)cc(Cl)c3n2)n1 [Entry 56]	≤ 100 nM	≤ 100 nM
O=C(O)CCc1cc(Cl)c(-c2noc(-c3cn4cc(I)cc(Cl)c4n3)n2)cc1F [Example 302, 3-{5-chloro-4-[5-(8-chloro-6-iodoimidazo[1,2-a]pyridin-2-yl)-1,2,4-oxadiazol-3-yl]-2-fluorophenyl}propanoic acid]	100 to 500 nM	≤ 100 nM

More lines, now with the values ahead:

EC50 (hS1P1R (hEdg1))	EC50 (S1P1)	SMILES
≤ 100 nM	≤ 100 nM	C[C@H](CO)Oc1cc(Cl)c(-c2noc(-c3cn4cc(C(F)(F)F)cc(Cl)c4n3)n2)cc1F [Example 93, (2R)-2-[(5-chloro-4-{5-[8-chloro-6-(trifluoromethyl)imidazo[1,2-a]pyridin-2-yl]-1,2,4-oxadiazol-3-yl}-2-fluorophenyl)oxy]propan-1-ol]
≤ 100 nM	≤ 100 nM	O=C(O)CCc1cc(Cl)c(-c2noc(-c3cn4cc(C(F)(F)F)cc(Cl)c4n3)n2)cc1F [Entry 24]
≤ 100 nM	≤ 100 nM	O=C(O)CCc1cc(Cl)c(-c2noc(-c3cn4cc(C(F)(F)F)cc(Br)c4n3)n2)cc1F [Entry 49]
≤ 100 nM	≤ 100 nM	O=C(O)CCc1cc(Cl)c(-c2nnc(-c3cn4cc(C(F)(F)F)cc(Cl)c4n3)s2)cc1F [Example 176, 3-(5-chloro-4-{5-[8-chloro-6-(trifluoromethyl)imidazo[1,2-a]pyridin-2-yl]-1,3,4-thiadiazol-2-yl}-2-fluorophenyl)propanoic acid]
100 to 500 nM	≤ 100 nM	O=C(O)CCc1cc(Cl)c(-c2nc(-c3cn4cc(C(F)(F)F)cc(Cl)c4n3)no2)cc1F [Example 233, 3-(5-chloro-4-{3-[8-chloro-6-(trifluoromethyl)imidazo[1,2-a]pyridin-2-yl]-1,2,4-oxadiazol-5-yl}-2-fluorophenyl)propanoic acid]
≤ 100 nM	≤ 100 nM	O=C(O)CCc1cc(Cl)c(-c2noc(-c3cn4cc(C(F)(F)F)cc(Cl)c4n3)n2)cc1Cl [Example 242, 3-(2,5-dichloro-4-{5-[8-chloro-6-(trifluoromethyl)imidazo[1,2-a]pyridin-2-yl]-1,2,4-oxadiazol-3-yl}phenyl)propanoic acid]
